From patent US10104891B2 (priority 2014, dated 2018)

Key:
Assay type in all cases: in vivo
[1] = tested on: Phytophthora infestans; test: whole plant or invertebrate; settings: for control value (Test 1): tomato late blight, control value vs untreated section; for pest or weed control at 4 µg/mL: Phytophthora infestans, in Solanum lycopersicum, 96 h, read-out: control value (Test 1)
[2] = tested on: Pseudoperonospora cubensis; test: Test 2: control effect against cucumber downy mildew; settings: control value vs untreated section; for pest or weed control at 4 µg/mL: Pseudoperonospora cubensis, 120 h
How it was run: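 Protective test: zoospores (1.0×10^4 units/ml) misted one day after applying a 4 ppm suspension (wettable powder diluted in 1/5000 Tween20) to 2-leaf cucumber, Sagami hanjiro. After 16 hr at 22° C humid incubation, leaf lesion area read at day 5, expressed as control value versus untreated leaves.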

[3] = tested on: Plasmopara viticola; test: Test 3: control effect against grape downy mildew; settings: control value vs untreated section; for pest or weed control at 4 µg/mL: Plasmopara viticola, 120 h
How it was run: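 Leaf lesion area, scored 5 days after inoculation and compared with untreated plants, gives the control value. Inoculation used P. viticola zoospores (1.0×10^4 units/ml) with a 16 hr moist incubation at 22° C. It followed by one day a spray of 4 ppm compound (wettable powder in Tween20) onto Neomuscat seedlings.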

Row | SMILES | control value (Test 1) [1] | control value (Test 2) [2] | control value (Test 3) [3] | pest or weed control at 4 µg/mL [1] | pest or weed control at 4 µg/mL [2] | pest or weed control at 4 µg/mL [3]
1 | COc1ccc(Br)c2c1COC(c1csc(C3CCN(C(=O)Cc4cc(C)ccc4C)CC3)n1)OC2 (stereo not drawn) [Compound 2-24] | 100 | 100 | 100 |  |  | 
2 | COc1ccc(Br)c2c1COC(c1csc(C3CCN(C(=O)Cc4cc(Cl)ccc4Cl)CC3)n1)OC2 (stereo not drawn) [Compound 2-25] | 40 | 100 | 100 |  |  | 
3 | COc1ccc(OS(C)(=O)=O)c2c1COC(c1csc(C3CCN(C(=O)Cc4cc(Cl)ccc4Cl)CC3)n1)OC2 (stereo not drawn) [Compound 2-26] | 100 | 100 | 100 |  |  | 
4 | Cc1ccc(C)c(CC(=O)N2CCC(c3nc(C4OCc5c(F)c(F)c(F)c(F)c5CO4)cs3)CC2)c1 [Compound 2-27] | 100 | 100 | 100 |  |  | 
5 | COc1ccc(OS(C)(=O)=O)c2c1COC(c1csc(C3CCN(C(=O)Cc4cc(C)ccc4C)CC3)n1)OC2 (stereo not drawn) [Compound 2-28] | 90 | 100 | 100 |  |  | 
6 | CS(=O)(=O)Oc1cccc2c1COC(c1csc(C3CCN(C(=O)Cc4cc(C(F)(F)F)ccc4C(F)(F)F)CC3)n1)OC2 (stereo not drawn) [Compound 2-30, 4-[4-(6-methylsulfonyloxy-1,5-dihydro-3H-2,4-benzodioxepin-3-yl)-2-thiazolyl]-1-[2-[2,5-bis(trifluoromethyl)phenyl]acetyl]piperidine] |  |  |  | 30% | 100% | 100%
7 | Cc1ccc(C)c(CC(=O)N2CCC(c3nc(C4OCc5c(OS(C)(=O)=O)cc(C)c(C)c5CO4)cs3)CC2)c1 (stereo not drawn) [Compound 2-31, 4-[4-(6,7-dimethyl-9-methylsulfonyloxy-1,5-dihydro-3H-2,4-benzodioxepin-3-yl)-2-thiazolyl]-1-[2-(2,5-dimethylphenyl)acetyl]piperidine] |  |  |  | 0% | 100% | 100%
8 | Cc1cc(OS(C)(=O)=O)c2c(c1C)COC(c1csc(C3CCN(C(=O)Cc4cc(Cl)ccc4Cl)CC3)n1)OC2 (stereo not drawn) [Compound 2-32] | 100 | 100 | 100 |  |  | 
9 | Cc1ccc(C)c(CC(=O)N2CCC(c3nc(C4OCc5c(Br)ccc(OS(C)(=O)=O)c5CO4)cs3)CC2)c1 (stereo not drawn) [Compound 2-33] | 20 | 100 | 100 |  |  | 
10 | CS(=O)(=O)Oc1ccc([N+](=O)[O-])c2c1COC(c1csc(C3CCN(C(=O)Cc4cc(Cl)ccc4Cl)CC3)n1)OC2 (stereo not drawn) [Compound 2-34] | 90 | 100 | 100 |  |  | 
11 | CS(=O)(=O)Oc1ccc(Br)c2c1COC(c1csc(C3CCN(C(=O)Cc4cc(Cl)ccc4Cl)CC3)n1)OC2 (stereo not drawn) [Compound 2-35] | 100 | 100 | 100 |  |  | 
12 | O=C(Cc1cc(Cl)ccc1Cl)N1CCC(c2nc(C3OCc4cccc([N+](=O)[O-])c4CO3)cs2)CC1 (stereo not drawn) [Compound 2-36] | 100 | 100 | 100 |  |  | 
13 | Cc1ccc(C)c(CC(=O)N2CCC(c3nc(C4OCc5c(OS(C)(=O)=O)ccc([N+](=O)[O-])c5CO4)cs3)CC2)c1 (stereo not drawn) [Compound 2-37] | 90 | 100 | 100 |  |  | 
14 | Cc1ccc(C)c(CC(=O)N2CCC(c3nc(C4OCc5c(Cl)ccc(OS(C)(=O)=O)c5CO4)cs3)CC2)c1 (stereo not drawn) [Compound 2-38] | 100 | 100 | 100 |  |  | 
15 | Cc1ccc(C)c(CC(=O)N2CCC(c3nc(C4OCc5c(I)ccc(OS(C)(=O)=O)c5CO4)cs3)CC2)c1 (stereo not drawn) [Compound 2-40] | 70 | 100 | 100 |  |  | 
16 | CS(=O)(=O)Oc1ccc(Cl)c2c1COC(c1csc(C3CCN(C(=O)Cc4cc(Cl)ccc4Cl)CC3)n1)OC2 (stereo not drawn) [Compound 2-41] | 100 | 100 | 100 |  |  | 
17 | Cc1ccc(C)c(CC(=O)N2CCC(c3nc(C4OCc5ccc(F)c(OS(C)(=O)=O)c5CO4)cs3)CC2)c1 (stereo not drawn) [Compound 2-42] | 90 | 100 | 100 |  |  | 

Row | SMILES | control value (Test 1) [1] | control value (Test 2) [2] | control value (Test 3) [3] | pest or weed control at 4 µg/mL [1] | pest or weed control at 4 µg/mL [2] | pest or weed control at 4 µg/mL [3]
18 | CS(=O)(=O)Oc1c(F)ccc2c1COC(c1csc(C3CCN(C(=O)Cc4cc(Cl)ccc4Cl)CC3)n1)OC2 (stereo not drawn) [Compound 2-43, 4-[4-(7-fluoro-6-methylsulfonyloxy-1,5-dihydro-3H-2,4-benzodioxepin-3-yl)-2-thiazolyl]-1-[2-(2,5-dichlorophenyl)acetyl]piperidine] |  |  |  | 100% | 100% | 100%
19 | CS(=O)(=O)Oc1ccc(I)c2c1COC(c1csc(C3CCN(C(=O)Cc4cc(Cl)ccc4Cl)CC3)n1)OC2 (stereo not drawn) [Compound 2-44, 4-[4-(6-iodo-9-methylsulfonyloxy-1,5-dihydro-3H-2,4-benzodioxepin-3-yl)-2-thiazolyl]-1-[2-(2,5-dichlorophenyl)acetyl]piperidine] |  |  |  | 90% | 100% | 100%
20 | COc1ccc(C)c2c1COC(c1csc(C3CCN(C(=O)Cc4cc(Cl)ccc4Cl)CC3)n1)OC2 (stereo not drawn) [Compound 2-46] | 100 | 100 | 100 |  |  | 
21 | Cc1ccc(C)c(CC(=O)N2CCC(c3nc(C4OCc5cccc(OC(F)F)c5CO4)cs3)CC2)c1 (stereo not drawn) [Compound 2-47] | 100 | 100 | 100 |  |  | 
22 | CS(=O)(=O)Oc1ccc2c(c1)COC(c1csc(C3CCN(C(=O)Cc4cc(Cl)ccc4Cl)CC3)n1)OC2 (stereo not drawn) [Compound 2-49] | 100 | 0 | 100 |  |  | 
23 | COc1cccc2c1COC(c1csc(C3CCN(C(=O)Cc4cc(C)ccc4C)CC3)n1)OC2 (stereo not drawn) [Compound 2-50] | 100 | 100 | 100 |  |  | 
24 | COc1cccc2c1COC(c1csc(C3CCN(C(=O)Cc4cc(Cl)ccc4Cl)CC3)n1)OC2 (stereo not drawn) [Compound 2-51] | 100 | 100 | 100 |  |  | 
25 | Cc1ccc(C)c(CC(=O)N2CCC(c3nc(C4OCc5c(OS(C)(=O)=O)ccc(OS(C)(=O)=O)c5CO4)cs3)CC2)c1 [Compound 2-53] | 100 | 100 | 100 |  |  | 
26 | Cc1ccc(C)c(CC(=O)N2CCN(c3nc(C4OCc5cccc(OS(C)(=O)=O)c5CO4)cs3)CC2)c1 (stereo not drawn) [Compound 2-54] | 90 | 90 | 100 |  |  | 
27 | CC(C)=NOCC(=O)N1CCC(c2nc(C3OCc4cccc(OS(C)(=O)=O)c4CO3)cs2)CC1 (stereo not drawn) [Compound 3-1, 4-[4-(6-methylsulfonyloxy-1,5-dihydro-3H-2,4-benzodioxepin-3-yl)-2-thiazolyl]-1-[2-[(propane-2-ylideneamino)oxy]acetyl]piperidine] |  |  |  | 100% | 100% | 100%
28 | O=C(CON=CC(F)(F)F)N1CCC(c2nc(C3OCc4cccc(F)c4CO3)cs2)CC1 (stereo not drawn) [Compound 3-2] | 100 | 100 | 100 |  |  | 
29 | CS(=O)(=O)Oc1ccc(F)c2c1COC(c1csc(C3CCN(C(=O)CON=CC(F)(F)F)CC3)n1)OC2 (stereo not drawn) [Compound 3-3] | 100 | 100 | 100 |  |  | 
30 | O=C(CON=CC(F)(F)F)N1CCC(c2nc(C3OCc4c(F)ccc(F)c4CO3)cs2)CC1 [Compound 3-4] | 100 | 100 | 100 |  |  | 
31 | COc1ccc(OS(C)(=O)=O)c2c1COC(c1csc(C3CCN(C(=O)CON=CC(F)(F)F)CC3)n1)OC2 (stereo not drawn) [Compound 3-5] | 100 | 100 | 100 |  |  | 
32 | CS(=O)(=O)Oc1cccc2c1COC(c1csc(C3CCN(C(=O)CON=CC(F)(F)F)CC3)n1)OC2 (stereo not drawn) [Compound 3-6] | 100 | 100 | 100 |  |  | 
33 | CO/C(=N\c1cc(C)ccc1C)N1CCC(c2nc(C3OCc4cccc(OS(C)(=O)=O)c4CO3)cs2)CC1 (stereo not drawn) [Compound 4-1, 4-[4-(6-methylsulfonyloxy-1,5-dihydro-3H-2,4-benzodioxepin-3-yl)-2-thiazolyl]-1-[(Z)-[(2,5-dimethylphenyl)imino](methoxy)methyl]piperidine] |  |  |  | 100% | 100% | 100%
